Assay results as given in patent publication US7635722B1, “Chemical induced intracellular hyperthermia” (priority 1998, dated 2009).

Columns and labels:
heat shock protein = test: DNP induction of autologous heat shock proteins; format: in vivo, human; details: after cessation of DNP
Protocol: DNP would be given orally at doses to increase the V02 from 1.5 to 5 times above normal per day for a period of 2-6 days or, as an infusion at doses that would increase V02 and core body temperatures no greater than 39° C. for periods of 5 to 6 hours or, intravenous doses of DNP alone, with vasopressors, or other short acting metabolic stimulators, that would increase V02 to equivalent core temperatures of 40-41° C. for periods of 15-30 minutes. Within 8-48 hours after cessation of DNP, the patient would have maximum heat shock protein production. Such DNP induced stress would improve clinical outcome by induction of cellular heat shock protein synthesis with protection of the patient's, organs, tissues and cells from subsequent ischemic surgical or traumatic procedures.

glioma = test: DNP enhanced PET-FDG scan, glioma (Example 7); format: in vivo, human; set-up: key to metabolic grade of FDG uptake, selected target / metabolic grade, hypermetabolic component in the tumor area / metabolic grade, remaining viable tumor: I: FDG uptake less than contralateral white matter; II: uptake between the levels in contralateral white and gray matter; III: FDG uptake equal to or greater than in contralateral gray matter
Text: Pretreatment protocol: three days prior to DNP dosing and repeat PET-FDG scan, the patient's dosage of phenyloin was increased from 100-mg three times daily to 200-mg three times a day. The same positron emission tomogram, a CTI-Siemens 933/08-12 which provides a 6.75-mm adjacent slices and in-plane spatial resolution (full-width at half maximum) of ˜5 mm, was to be used. The highest level of non to DNP stimulated FDG uptake in the tumor area was to be compared and qualitatively graded by two radiologists. Independently, each investigator was to visually evaluate the positron emission tomogram and use the following metabolic grading scale: I, FDG uptake less than contralateral white matter; II, uptake between the levels in contralateral white and gray matter; III, FDG uptake equal to or greater than in contralateral gray matter.
Diagnostic—treatment protocol: the patient was given a 300 mg capsule of DNP (approximately 4 mg/kg body weight) three hours prior to undergoing a PET-FDG scan. Forty minutes prior to the emission scan they were intravenously injected with a bolus of FDG according to standard methodology. Immediately prior to the 20-minute emission scan the patients VO2 uptake was 40% above that at baseline. The patients DNP/VO2 flow chart is FIG. 24.

Borrelia burgdorferi = test: DNP hyperthermia, Lyme disease (Example 3); format: in vivo, human
Protocol: Pretreatment protocol: the evening prior treatment the patient was instructed not to eat and dress in cotton undergarments. Approximately 4 hours prior to treatment 2 mg alprazolam was administered by mouth. The patient dressed themself into a dry cold water immersion suit (Stearns, previously described) with headgear. Monitoring sensors, including EKG display, IV fluids and Foley catheter were attached and the suit was zipped closed. The patient opted for oxygen supplementation. The modified face mask was connected to the TEEM 100 metabolic Analysis System for V02 measurements. Data was recorded as previously described.
The patient was infused with 1 mg/kg DNP over a 2 minute period. V02 increased and stabilized at 250 cc/min, 5.3 cc/kg/min. A second dose of 2.0 mg/kg was infused over a 2 minute period and the V02 peaked at 400 cc/min, 8.8 cc 02/kg/min. An additional dose of 1.0 mg/kg DNP was given 30 minutes after the second dose. The V02 increased and reached a stable plateau at 600 cc/min, […]. […] V02 increased back to 680-710 cc/min. […] The patient periodically requested the V02 monitoring mask be removed during the hyperthermia treatment period. They were accommodated with removal of the mask on two occasions for periods not exceeding 10 minutes. […] The treatment was terminated 4 hours and 10 minutes after the initial dose of DNP. Twenty five minutes after the patient was removed from the neoprene survival suit, the rectal core temperature dropped to 38.5° C. Normothermia was achieved approximately 60 minutes after cessation of therapy and removal from the survival suit. Approximately 6.5 to 7 hours after treatment the patient experienced chills, an increase in oral temperature to 38.7 degrees centigrade and malaise. IV fluids and the dopamine drip at 2 mcg/kg/min were restarted and the patient was closely observed. Their symptoms subsided over 3 hours and by the next day they felt active and hungry. It was surmised they may have experienced a delayed Jarisch-Herxheimer reaction. The patients monitored treatment flow chart is FIG. 18.

[1] = test system: dimethyl benzo-dithionaphthene derived ascites fibrosarcoma; test: DNP induced hyperthermia with thermosensitive liposomes, ascites fibrosarcoma (Example 5); format: in vivo, Swiss albino mice
Protocol: The anticancer drug dacarbazine [5-(3,3′-dimethyl-1-triazino) imidazole-4-carboxamide] was encapsulated in these heat-sensitive liposomes at a concentration of 3 mg/ml. The in vivo efficacy of the thermosensitive, liposome encapsulated dacarbazine was tested on Swiss albino mice transplanted with a dimethyl benzo-dithionaphthene derived ascites fibrosarcoma subjected to DNP induced hyperthermia.
Male, 10-12-week-old, Swiss albino mice were injected with 3×10^6 viable fibrosarcoma cells into the peritoneum. After 15 days the animals were divided into various treatment and control groups receiving intraperitoneal injections of free dacarbazine, DNP alone, DNP+empty liposomes and DNP+liposome encapsulated dacarbazine. DNP induced hyperthermia was recorded with neonatal rectal and 22 ga. hypodermic YSI probes. Temperatures were recorded 30 minutes after a 20 mg/kg intraperitoneal dose of DNP. DNP was administered every day for a total of 5 doses. In all cases the hypodermic, intraperitoneal temperatures were 1° C. higher than the rectal.

[2] = DNP enhancement, one year after diagnosis and therapy

With O=[N+]([O-])c1ccc(O)c([N+](=O)[O-])c1 [DNP, 2,4-dinitrophenol] the “time to maximum heat shock protein production” value (heat shock protein) was 8 to 48 h, the “DNP enhanced PET-FDG scan finding” value (glioma; 300 mg oral DNP, none without DNP) was “two areas of hypermetabolism” and the “metabolic grade of FDG uptake, selected target” value (glioma; DNP enhanced PET-FDG scan) was “III”. The “metabolic grade, hypermetabolic component in the tumor area” value (glioma; [2]) was “II”, the “metabolic grade, remaining viable tumor” value (glioma; [2]) was “I” and the “repeat spinal fluid analysis, Borrelia DNA by PCR” value (Borrelia burgdorferi; after treatment) was “no detectable Borrelia DNA by PCR”. The “spinal fluid culture on Barbour-Stoenner-Kelly II medium” value (Borrelia burgdorferi; three months later) was “negative”, the EKG (Borrelia burgdorferi; two months follow-up) was “resolution of their first degree A-V block” and the symptoms (Borrelia burgdorferi; two months follow-up) was “arthralgias, myalgias, malaise, fatigue and memory deficits have disappeared”. The “hypodermic, intraperitoneal temperature higher than the rectal” value ([1]; 30 minutes after 20 mg/kg intraperitoneal DNP) was 1 °C, the “survival curves in comparison to controls” value ([1]; FIG. 20, DNP 20 mg/kg ip every day, 5 doses) was “significantly improved” and the animals remained alive ([1]; sham treated animals all died by 60) was at least 100 days.
